Among the test systems are UACC-62 melanoma; RPMI-8226 leukemia; NCI/ADR-RES ovarian; TK-10 renal; M14 melanoma; SW-620 colon; COLO 205 colon; OVCAR-4 ovarian; CAKI-1 renal; CCRF-CEM leukemia.
What all share (experiment): NCI-60 cell line screen, 48 h

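Step 1: Grow cells in 96-well plates. Step 2: Expose to compound for 48 hours at 5 concentrations. Step 3: Interpolate endpoints linearly; if unreached, use highest concentration. GI50: concentration for 50% inhibition of growth. Definition used: TGI = concentration required for complete inhibition of growth.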

Take `Cc1c(-c2ccc(N3CCc4cccc(C(=O)Nc5nc6ccccc6s5)c4C3)nc2C(=O)O)cnn1CC12CC3CC(CC(C3)C1)C2`: the GI50 in the experiment with UACC-62 melanoma was 3.65 µM; in the experiment with RPMI-8226 leukemia, < 0.0177 µM; in the experiment with NCI/ADR-RES ovarian it was 14.7 µM; in the experiment with TK-10 renal it was 2.99 µM; in the experiment on M14 melanoma it was 7.7 µM; with SW-620 colon, 8.54 µM. Also, the GI50 in the experiment with COLO 205 colon was 0.63 µM; in the experiment on OVCAR-4 ovarian it was 6.72 µM; in the experiment with CAKI-1 renal it was 8.35 µM; with CCRF-CEM leukemia, < 0.01 µM. The TGI was found to be 15.4 µM in the experiment with UACC-62 melanoma; 2.86 µM in the experiment with RPMI-8226 leukemia; 38 µM in the experiment with NCI/ADR-RES ovarian; 13.5 µM with TK-10 renal; 25.4 µM in the experiment with M14 melanoma; 37.1 µM in the experiment with SW-620 colon. Further, the TGI in the experiment on COLO 205 colon came to 10.9 µM; with OVCAR-4 ovarian, 33.2 µM; in the experiment on CAKI-1 renal, 23.4 µM; with CCRF-CEM leukemia, 10.4 µM.
As for `O=C(/C=C/N1CCN(c2cccc(Cl)c2)CC1)c1ccc(Cl)cc1`, the GI50 was 27.3 µM in the experiment on UACC-62 melanoma; 18.3 µM in the experiment with RPMI-8226 leukemia; 33.2 µM in the experiment on NCI/ADR-RES ovarian; 30.8 µM in the experiment with TK-10 renal; 19.6 µM with M14 melanoma; 30 µM with SW-620 colon. Moreover, the GI50 in the experiment with COLO 205 colon was 36.2 µM; in the experiment on OVCAR-4 ovarian, > 100 µM; in the experiment on CAKI-1 renal it was 28.8 µM; with CCRF-CEM leukemia, 22.6 µM. Also, the TGI is 83.5 µM in the experiment on UACC-62 melanoma; 50.7 µM in the experiment with RPMI-8226 leukemia; > 100 µM in the experiment on NCI/ADR-RES ovarian; > 100 µM with TK-10 renal; 42.3 µM in the experiment on M14 melanoma; 99.3 µM in the experiment with SW-620 colon. In addition, the TGI with COLO 205 colon was > 100 µM; in the experiment on OVCAR-4 ovarian, > 100 µM; in the experiment on CAKI-1 renal it was 71.1 µM; with CCRF-CEM leukemia, 66.7 µM.
Turning to `Cc1cc2c(SCc3ccccc3Cl)nc(N)nc2nc1C`, the TGI with UACC-62 melanoma, in the experiment with RPMI-8226 leukemia, in the experiment with NCI/ADR-RES ovarian, in the experiment with TK-10 renal, in the experiment with M14 melanoma and in the experiment with SW-620 colon was > 100 µM each time. The TGI in the experiment with COLO 205 colon, with OVCAR-4 ovarian, in the experiment with CAKI-1 renal and in the experiment with CCRF-CEM leukemia was > 100 µM in each case.
Turning to `O=C(NCc1cccnc1)c1ccc([N+](=O)[O-])o1`, the GI50 was 1.06 µM in the experiment on UACC-62 melanoma; 4.72 µM with RPMI-8226 leukemia; 1.66 µM in the experiment on NCI/ADR-RES ovarian; 3.33 µM in the experiment on TK-10 renal; 1.42 µM in the experiment on M14 melanoma; 1.47 µM in the experiment with SW-620 colon. The GI50 with COLO 205 colon is 0.659 µM; with OVCAR-4 ovarian it was 6.22 µM; in the experiment on CAKI-1 renal, 2.39 µM; in the experiment with CCRF-CEM leukemia it was 14.5 µM. In addition, the TGI in the experiment with UACC-62 melanoma is 4.42 µM; in the experiment on RPMI-8226 leukemia, > 32.5 µM; with NCI/ADR-RES ovarian it was 23.9 µM; in the experiment with TK-10 renal it was 10.4 µM; in the experiment with M14 melanoma it was 5.12 µM; with SW-620 colon it was 5.58 µM. Also, the TGI with COLO 205 colon was 1.28 µM; in the experiment with OVCAR-4 ovarian, > 19.8 µM; with CAKI-1 renal, 13.3 µM; with CCRF-CEM leukemia it was > 32.5 µM.
For the compound `Nc1ccc(N)c2c1C(=O)c1cccc([N+](=O)[O-])c1C2=O`, the GI50 in the experiment with UACC-62 melanoma is 1.2 µM; in the experiment with RPMI-8226 leukemia, 2.82 µM; with NCI/ADR-RES ovarian, 4.52 µM; in the experiment with TK-10 renal, 3.21 µM; in the experiment on M14 melanoma it was 3.37 µM; in the experiment with SW-620 colon, 2.41 µM. Further, the GI50 is 4.17 µM in the experiment with COLO 205 colon, 11.9 µM in the experiment with OVCAR-4 ovarian, 0.549 µM in the experiment with CAKI-1 renal and 7.95 µM in the experiment on CCRF-CEM leukemia. Moreover, the TGI with UACC-62 melanoma is 5.65 µM; in the experiment with RPMI-8226 leukemia it was > 100 µM; in the experiment on NCI/ADR-RES ovarian it was > 100 µM; in the experiment with TK-10 renal, > 71.8 µM; in the experiment with M14 melanoma it was > 100 µM; in the experiment on SW-620 colon, > 100 µM. The TGI in the experiment on COLO 205 colon is > 55.4 µM; in the experiment with OVCAR-4 ovarian, > 100 µM; in the experiment with CAKI-1 renal it was 4.07 µM; in the experiment on CCRF-CEM leukemia, > 100 µM.
As for `CN(C)C(=O)c1cc2cnc(Nc3ccc(N4CCNCC4)cn3)nc2n1C1CCCC1`, the GI50 in the experiment with UACC-62 melanoma was 15.4 µM; in the experiment on RPMI-8226 leukemia it was 2.62 µM; in the experiment with NCI/ADR-RES ovarian, 37.8 µM; in the experiment on TK-10 renal, 4.37 µM; in the experiment with M14 melanoma, 15.7 µM; in the experiment with SW-620 colon, 1.21 µM. Besides, the GI50 in the experiment with COLO 205 colon is 1.75 µM; in the experiment with OVCAR-4 ovarian it was 22.4 µM; in the experiment with CAKI-1 renal it was 20 µM; with CCRF-CEM leukemia it was 2.92 µM. Further, the TGI in the experiment with UACC-62 melanoma was 34 µM; in the experiment on RPMI-8226 leukemia, 30 µM; in the experiment on NCI/ADR-RES ovarian, > 100 µM; in the experiment on TK-10 renal, > 100 µM; in the experiment on M14 melanoma, 39.1 µM; with SW-620 colon, 66 µM. The TGI was 26.5 µM in the experiment with COLO 205 colon, 86.8 µM in the experiment with OVCAR-4 ovarian, > 100 µM in the experiment on CAKI-1 renal and > 100 µM in the experiment on CCRF-CEM leukemia.
Consider `COc1ccc(S(=O)(=O)NCCCNc2nccc(-c3c(-c4ccc(F)cc4)nc4sccn34)n2)cc1`, for which the GI50 was 3.38 µM with UACC-62 melanoma; 6.25 µM with RPMI-8226 leukemia; 5.23 µM in the experiment on NCI/ADR-RES ovarian; 11.8 µM in the experiment on TK-10 renal; 8.98 µM in the experiment on M14 melanoma; 24 µM in the experiment on SW-620 colon. Besides, the GI50 with COLO 205 colon is 5.58 µM; in the experiment on OVCAR-4 ovarian, 3.07 µM; with CAKI-1 renal, 6.72 µM; in the experiment on CCRF-CEM leukemia, 4.42 µM. For the same compound, the TGI in the experiment with UACC-62 melanoma was 74.8 µM; in the experiment on RPMI-8226 leukemia, 58.2 µM; with NCI/ADR-RES ovarian, > 100 µM; in the experiment on TK-10 renal, > 100 µM; in the experiment with M14 melanoma it was > 100 µM; with SW-620 colon, > 100 µM. The TGI was 73.9 µM in the experiment with COLO 205 colon, 27.2 µM in the experiment with OVCAR-4 ovarian, > 100 µM in the experiment on CAKI-1 renal and > 100 µM in the experiment on CCRF-CEM leukemia.
For the compound `CN1CCN(Cc2ccc(NC(=O)c3cncc(C#Cc4cnc5cccnn45)c3)cc2C(F)(F)F)CC1`, the GI50 was 1.33 µM in the experiment on UACC-62 melanoma; 1.11 µM with RPMI-8226 leukemia; 1.83 µM with NCI/ADR-RES ovarian; 1.88 µM with TK-10 renal; 1.02 µM in the experiment on M14 melanoma; 0.981 µM in the experiment with SW-620 colon. In addition, the GI50 was 1.02 µM in the experiment with COLO 205 colon, 0.732 µM in the experiment with OVCAR-4 ovarian, 1.44 µM in the experiment with CAKI-1 renal and 1.52 µM with CCRF-CEM leukemia. In addition, the TGI in the experiment with UACC-62 melanoma stood at 4.46 µM; in the experiment on RPMI-8226 leukemia, 3.05 µM; in the experiment on NCI/ADR-RES ovarian it was 8.1 µM; with TK-10 renal, 6.03 µM; in the experiment with M14 melanoma, 3.34 µM; with SW-620 colon it was 4.34 µM. Besides, the TGI turned out to be 2.91 µM with COLO 205 colon, 3.68 µM with OVCAR-4 ovarian, 5.22 µM in the experiment with CAKI-1 renal and 15.2 µM with CCRF-CEM leukemia.
On to `O=C(Nc1cccc(C(F)(F)F)c1)Nc1cc(S(=O)(=O)NC2CC2)ccc1-c1ccsc1`, for which the GI50 is 2.93 µM in the experiment with UACC-62 melanoma; 2.57 µM with RPMI-8226 leukemia; 6.05 µM in the experiment with NCI/ADR-RES ovarian; 4.65 µM in the experiment on TK-10 renal; 4.32 µM with M14 melanoma; 4.45 µM in the experiment with SW-620 colon. Further, the GI50 was 2.71 µM in the experiment on COLO 205 colon, 3.78 µM in the experiment on OVCAR-4 ovarian, 4.47 µM in the experiment with CAKI-1 renal and 3.25 µM in the experiment with CCRF-CEM leukemia. The TGI in the experiment on UACC-62 melanoma turned out to be 13.8 µM; in the experiment with RPMI-8226 leukemia it was 8.22 µM; with NCI/ADR-RES ovarian it was 26.9 µM; in the experiment on TK-10 renal it was 17.2 µM; in the experiment with M14 melanoma it was 18.4 µM; with SW-620 colon, 18.5 µM. The TGI amounted to 7.41 µM with COLO 205 colon, 15.4 µM in the experiment on OVCAR-4 ovarian, 18.6 µM in the experiment on CAKI-1 renal and 18.3 µM with CCRF-CEM leukemia.
As to `COc1cc2c(cc1OCCCN1CCN(CCCn3c4ccccc4c4ccccc43)CC1)N=C[C@@H]1CCCN1C2=O`, the GI50 in the experiment with UACC-62 melanoma was 0.162 µM; with RPMI-8226 leukemia it was 0.0106 µM; with NCI/ADR-RES ovarian it was 1.37 µM; in the experiment on TK-10 renal, 0.086 µM; with M14 melanoma it was 0.211 µM; with SW-620 colon it was 0.0254 µM. The GI50 was 0.0749 µM with COLO 205 colon, 0.0374 µM in the experiment on OVCAR-4 ovarian, 0.148 µM in the experiment on CAKI-1 renal and 0.0218 µM in the experiment on CCRF-CEM leukemia. Further, the TGI with UACC-62 melanoma is 0.347 µM; with RPMI-8226 leukemia, 0.0483 µM; with NCI/ADR-RES ovarian it was 4.93 µM; in the experiment on TK-10 renal, 1.07 µM; in the experiment on M14 melanoma, 0.656 µM; in the experiment with SW-620 colon, 0.141 µM. Further, the TGI stood at 0.235 µM with COLO 205 colon, 0.357 µM in the experiment with OVCAR-4 ovarian, 1.17 µM in the experiment on CAKI-1 renal and 0.118 µM in the experiment with CCRF-CEM leukemia.
Regarding `COc1cc([C@H]2c3cc(O)c(OC)cc3C[C@]3(O)[C@@H]2CO[C@@H]3O)ccc1O`, the TGI with UACC-62 melanoma, in the experiment with RPMI-8226 leukemia, in the experiment on NCI/ADR-RES ovarian, in the experiment with TK-10 renal, in the experiment with M14 melanoma and with SW-620 colon was > 100 µM throughout. In addition, the TGI in the experiment with COLO 205 colon, with OVCAR-4 ovarian, in the experiment with CAKI-1 renal and with CCRF-CEM leukemia was > 100 µM throughout.

Source of the values: PubChem BioAssay (NCI).
